The target in the series is BSA (Bos taurus, UniProt P02769). In words: Circular dichroism (CD) spectra of BSA with surfactant. Particulars: 0.1 g·L^−1 BSA; 1, 2, 2.5, 4, or 6 mM SDS. The series is classed as physicochemical, bovine. The source says: Resolution of CD is ±0.1 degree.
Surfactant-protein complexation is often associated with molecular rearrangement of the protein (i.e., change in protein conformation). […] Protein conformation changes can be probed using circular dichroism (CD) experiments, as illustrated in FIG. 5.
In general terms: CD spectra are sensitive to the conformation of chiral molecules.

The text below walks through data of US11292002B2, “Surfactant additives for digital microfluidic devices for high protein content droplets transport” (THE GOVERNING COUNCIL OF THE UNIVERSITY OF TORONTO, priority 2016, dated 2022).

Sequence of BSA (P02769 25-607): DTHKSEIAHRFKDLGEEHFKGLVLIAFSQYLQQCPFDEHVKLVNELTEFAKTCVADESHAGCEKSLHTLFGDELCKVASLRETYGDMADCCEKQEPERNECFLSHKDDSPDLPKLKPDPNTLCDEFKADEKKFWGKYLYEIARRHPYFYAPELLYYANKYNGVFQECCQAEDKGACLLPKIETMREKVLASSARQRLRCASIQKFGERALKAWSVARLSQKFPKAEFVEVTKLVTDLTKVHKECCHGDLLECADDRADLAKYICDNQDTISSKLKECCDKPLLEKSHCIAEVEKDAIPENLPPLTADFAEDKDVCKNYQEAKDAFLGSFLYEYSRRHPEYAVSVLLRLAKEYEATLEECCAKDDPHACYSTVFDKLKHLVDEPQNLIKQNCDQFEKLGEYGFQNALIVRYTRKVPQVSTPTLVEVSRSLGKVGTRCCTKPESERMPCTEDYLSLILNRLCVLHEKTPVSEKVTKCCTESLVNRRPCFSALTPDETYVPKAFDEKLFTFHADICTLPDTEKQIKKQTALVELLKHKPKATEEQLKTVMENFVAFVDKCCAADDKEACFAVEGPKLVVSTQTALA

Regarding `CCCCCCCCCCCCOS(=O)(=O)[O-].[Na+]` [SDS, sodium dodecyl sulfate], the “CD spectrum of BSA with surfactant compared with BSA alone” value is “distinctly different CD spectrum”.
